Test: pH stability of prodrugs of DFMO in PBS buffer (LC/MS/MS)
Format: physicochemical
Description: The stability of prodrugs of DFMO to different pH conditions over time was assayed. Prodrugs were reconstituted in dimethylsulfoxide (DMSO), diluted into phosphate buffered saline (PBS) of different pH values, incubated for different lengths of time at room temperature, and then analyzed by LC/MS/MS for changes in the levels of each prodrug. […] Following this initial phase, the (2)-prodrug was reasonably stable over the next 24 hours so that less than 20% of the intact prodrug was lost at pH 3 and 5, and about 60% of the intact material was lost at pH 8 over a day. […] Similar results were obtained with the other prodrugs tested.

For CC(OC(=O)NCCCC(N)(C(=O)O)C(F)F)OC(=O)C(C)C (stereo not drawn) [(2)-prodrug, 2-amino-2-(difluoromethyl)-5-[1-(2-methylpropanoyloxy)ethoxycarbonylamino]pentanoic acid], the “intact prodrug lost over the next 24 hours” value (PBS pH 3, room temperature, 24 hours following initial phase) was “less than 20%”, the “decrease in the amount of intact, non-degraded prodrug over the first hour of incubation” value (PBS pH 3, room temperature) was “about 60%” and the “intact prodrug lost over the next 24 hours” value (PBS pH 5, room temperature, 24 hours following initial phase) was “less than 20%”. For the same compound, the “decrease in the amount of intact, non-degraded prodrug over the first hour of incubation” value (PBS pH 5, room temperature) was 30-35%, the “intact material lost over a day” value (PBS pH 8, room temperature, 24 hours following initial phase) was “about 60%” and the “decrease in the amount of intact, non-degraded prodrug over the first hour of incubation” value (PBS pH 8, room temperature) was 30-35%.
